# Laboratory results published in the supplement of paper PMC5844555.
# Assays:
# Test in all cases: 3' UTR reporter interaction score (median-centred robust z-score of log2 firefly/Renilla activity); higher = less repression of the 3' UTR reporter
# Settings in all cases: HEK293T; 48 h
# RB1 = system: RB1
# Procedure, shortened: (§1)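 For the interaction score, the firefly/Renilla ratio was log-transformed, expressed as a robust z-score per plate using median and median absolute deviation, and median-centred per miRNA; a more negative score indicates interaction. These scores come from at least two independent screens, averaged. Each screen used HEK293T cells at 10,000/well in 96-well plates, co-transfected with DharmaFECT Duo carrying 100 ng luc2P 3' UTR reporter, 20 ng pRL-TK and 2.5 pmol miRNA mimic, with luciferase read at 48 h.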
# HRAS = system: HRAS
# Procedure, shortened: as §1
# PHOX2B = system: PHOX2B
# Procedure, shortened: as §1
# TP53 = system: TP53
# Procedure, shortened: as §1
# MYT1L = system: MYT1L
# Procedure, shortened: as §1
# MYB = system: MYB
# Procedure, shortened: as §1
# PHF6 = system: PHF6
# Procedure, shortened: as §1
# MYCN = system: MYCN
# Procedure, shortened: as §1
# NOTCH1 = system: NOTCH1
# Procedure, shortened: as §1
# EZH2 = system: EZH2
# Procedure, shortened: as §1
# MYC = system: MYC
# Procedure, shortened: as §1
# FBXW7 = system: FBXW7
# Procedure, shortened: as §1
# ZEB2 = system: ZEB2
# Procedure, shortened: as §1
# BRCA2 = system: BRCA2
# Procedure, shortened: as §1
Sequence,3' UTR reporter interaction score (RB1),3' UTR reporter interaction score (HRAS),3' UTR reporter interaction score (PHOX2B),3' UTR reporter interaction score (TP53),3' UTR reporter interaction score (MYT1L),3' UTR reporter interaction score (MYB),3' UTR reporter interaction score (PHF6),3' UTR reporter interaction score (MYCN),3' UTR reporter interaction score (NOTCH1),3' UTR reporter interaction score (EZH2),3' UTR reporter interaction score (MYC),3' UTR reporter interaction score (FBXW7),3' UTR reporter interaction score (ZEB2),3' UTR reporter interaction score (BRCA2)
UAUUGCUUAAGAAUACGCGUAG,0.636,0.147,-0.259,-0.087,0.685,-0.789,-1.32,0.474,-0.139,0.837,-0.116,-1.25,0.0907,0.543
GCCCCUGGGCCUAUCCUAGAA,0.411,-0.133,-0.0536,-0.179,-0.294,0.244,2.01,0.221,-0.931,0.389,-0.282,0.0138,-0.237,0.566
CACCCGUAGAACCGACCUUGCG,-0.00577,0.575,-3.87,-0.17,-0.00069,0.655,-0.967,-0.0242,-0.125,-0.866,0.596,0.377,-1.09,0.615
UGAGUUGGCCAUCUGAGUGAG,0.000132,-0.0567,-3.59,-0.988,2.61,0.927,2.42,-3.35,1.03,0.24,-0.317,-0.251,0.14,-0.135
GUGUGUGGAAAUGCUUCUGC,1.07,0.713,-1.13,-0.707,-1.13,1.87,1.54,1.7,-0.133,1.67,-0.259,-0.236,-1.28,-2.78
UUAUCAGAAUCUCCAGGGGUAC,-0.955,0.803,-1.55,-0.646,-0.147,1.26,0.08,-0.164,0.0518,-0.893,1.44,0.189,0.799,0.769
CAAAACUGGCAAUUACUUUUGC,0.322,0.367,-0.532,0.751,-0.395,-1.52,-1.26,-0.107,0.158,0.755,-0.183,-2.13,0.0176,-0.307
UUCAACGGGUAUUUAUUGAGCA,0.475,1.35,0.542,0.52,-0.699,-0.5,-0.872,0.423,-0.631,0.563,-0.455,0.647,-0.63,0.803
UCUUUGGUUAUCUAGCUGUAUGA,0.127,0.757,-0.756,-1.13,-0.093,-0.0519,0.471,-0.305,-0.836,0.57,-0.165,0.588,0.948,-0.397
AGGGGUGGUGUUGGGACAGCUCCGU,0.429,-1.12,-0.841,0.0145,-0.319,-0.179,-0.137,0.408,-4.27,0.203,-0.499,0.925,0.212,-0.768
AGGGCCCCCCCUCAAUCCUGU,1.06,-0.753,0.177,-0.172,0.617,0.144,0.378,-0.0892,-0.584,0.205,-0.761,0.757,1.65,0.425
AGGGAUCGCGGGCGGGUGGCGGCCU,-0.0484,-0.484,-1.25,0.628,-0.194,0.376,2.46,-0.927,0.433,-0.298,-0.321,-0.971,-0.0578,0.916
UAGGUUAUCCGUGUUGCCUUCG,-0.0884,0.327,0.827,-0.804,-0.174,1.02,1.26,0.616,0.0096,0.345,-0.452,-0.104,0.258,-0.557
UAGUACCAGUACCUUGUGUUCA,0.0822,0.088,-0.362,-0.292,0.421,-2.96,-0.322,0.174,-0.471,0.789,0.000513,0.884,1.08,-0.45
ACUGGGGGCUUUCGGGCUCUGCGU,0.988,-0.439,-0.685,0.587,0.0192,0.119,2.06,-0.18,0.864,-0.722,-0.444,0.537,1.01,0.135
UCCGUCUCAGUUACUUUAUAGCC,0.307,-0.357,-0.906,1.13,-0.738,-1.75,2.5,-0.29,-0.0124,0.571,0.0204,-1.56,-2.24,1.46
CAAGUCACUAGUGGUUCCGUUUA,1.58,-1.48,0.0612,-0.393,-1.25,-0.363,-0.71,-0.0757,1.15,0.168,-1.07,1.35,1.99,0.252
